According to patent US8759104B2, “Cationic lipids” (The University Court of the University of Edinburgh, priority 2010, dated 2014):

Legend:
B16F10 cells [1] = assay: Transfection of pEGFP-C1 reporter plasmid into B16F10 cells, GFP expression by flow cytometry; assay type: cell-based, mouse
Experimental: (§1) The corresponding cationic lipid (1 mM in methanol) were mixed in different proportions with DOPE (10 mg/mL in chloroform) and the organic solvent removed by evaporation in an oven (37° C.) overnight. The resultant thin films were then hydrated with PBS. The solutions were vortexed (10-20 s) and incubated at ambient temperature for 20 min. Plasmid DNA or siRNA solution (0.04 mg/mL in PBS or another isotonic solution) was subsequently added and the solution vortexed (10-20 s). The lipoplexes were incubated at room temperature for 20 min before being used.
(§2) Human HeLa cells were grown in RPMI supplemented with 4 mM glutamine, 10% FCS and 100 units/ml penicillin/streptomycin (RPMI-CM) until 80% confluence. HEK293 and B16F10 cells were grown in DMEM supplemented with 4 mM glutamine, 10% FCS and 100 units/ml penicillin/streptomycin (DMEM-CM) until 80% confluence. Cells were then suspended using trypsin/EDTA and counted. 2×10^4 cells in 150 μL of media per well were seeded in 96 well plates and incubated overnight. The day afterwards, the different lipoplex formulations were added. Each experiment was performed in quadruplicate, using Effectene® Transfection Reagent (Qiagen), Lipofectamine™ 2000 (Invitrogen) and Fugene (Roche) as positive controls and untreated cells as negative controls. After two days incubation at 37° C. and 5% CO2 (the change of media after transfection was not necessary), the green fluorescent protein (GFP) expression, as a consequence of transfecting the pEGFP-C1, was evidenced using a fluorescent microscope (Leica) and measured by flow cytometry. For the flow cytometry analysis, cells were washed twice with PBS, detached with trypsin/EDTA, harvested with 2% ferum bovine serum (FBS) in PBS, centrifuged and resuspended with 2% FBS in PBS and analyzed using a BD FACSaria flow cytometer. Transfection efficiency was measured as percentage of transfected cells.
(§3) Reagents that obtained greater than 50% transfection were also analyzed against HEK293 and B16F10 cell lines. Transfection results (+ percentages of transfection between 5-25%; ++ percentages of transfection between 25-50%; N.D. not determined). MTT toxicity assay results are indicated between brackets with 100% being cell viability of untreated cells.

HEK293 cells [2] = assay: Transfection of pEGFP-C1 reporter plasmid into HEK293 cells, GFP expression by flow cytometry; assay type: cell-based, human
Experimental: as §1, §2, §3

HEK293 cells [3] = assay: MTT cell viability assay of transfected HEK293 cells; assay type: cell-based, human; settings: 100% being cell viability of untreated cells; 24 h after addition of transfection agents
Experimental: as §3
(§4) Twenty-four hours after the addition of transfection agents, cell viability was measured using an MTT cell proliferation assay (LGC Promochem, Middlesex, UK), which was performed according to the manufacturer's instructions. Absorbance was read at 570 nm. […] The comparative data obtained with lipids 28a, 29a, 30a and 31a of the invention, Lipofectamine™ 2000, Fugene and Effectene® Transfection Reagent are shown between brackets in Table 2.

HeLa cells [4] = assay: Transfection of pEGFP-C1 reporter plasmid into HeLa cells, GFP expression by flow cytometry; assay type: cell-based, human; settings: for Transfection efficiency (percentage of transfected cells), HeLa / Transfection results (percentage of transfected cells), HeLa: HeLa cells 48 h after transfection with reporter plasmid, flow cytometry; for Transfection compared with the positive controls: N/P ratio 3, 1:1 mol mixture with DOPE, controls Effectene, Lipofectamine 2000, Fugene
Experimental: as §1, §2, §3

HeLa cells [5] = assay: MTT cell viability assay of transfected HeLa cells; assay type: cell-based, human; settings: 100% being cell viability of untreated cells; 24 h after addition of transfection agents
Experimental: as §3, §4

B16F10 cells [6] = assay: MTT cell viability assay of transfected B16F10 cells; assay type: cell-based, mouse; settings: 100% being cell viability of untreated cells; 24 h after addition of transfection agents
Experimental: as §3, §4

HeLa cells [7] = assay: Transfection of fluorescein-labelled siRNA (siGLO) into HeLa cells, flow cytometry; assay type: cell-based, human; settings: 24 h incubation
Experimental: as §1
Cells were suspended using trypsin/EDTA and counted. 2×10^4 cells in 150 μL of RPMI-CM per well were seeded in 96-well plates and incubated overnight. The day afterwards, the different lipoplex formulations formulated with siGLO (fluorescein-labeled siRNA that localizes within cell nuclei (Dharmacon)) and added to the cells. […] After 24 h incubation at 37° C. and 5% CO2 (change of media after transfection was not necessary), the green fluorescence emitted by intracellular siGLO was imaged under microscope. […] For the flow cytometry analysis, cells were washed twice with PBS, detached with trypsin/EDTA, harvested with 2% FBS in PBS, centrifuged and resuspended with 2% FBS in PBS and analyzed using a BD FACSaria flow cytometer.

mice = assay: In vivo transfection of luciferase-expressing plasmid (pLux) in mice, luminescence imaging
Experimental: Experiments were performed to transfect a luciferase-expressing plasmid (pLux) by intravenous injection via the vein tail of mice: three transfected with pLux complexed with compound 29a and three (control) with naked pLux. Two days after instillation, firefly luciferin was administrated intraperitoneally and the mice imaged using an IVIS Spectrum.
The mouse depicted on the left was transfected with naked plasmid; the mouse the right was transfected with plasmid complexed with compound 29a. Mice (n=3, per experiment) were anaesthetised and intubated following standard protocols. 16 μg of a luciferase-reporter plasmid were used per mouse. […] Firefly luciferin (15 mg/kg) was administered intraperitoneally to the anesthetized mice 15 min before scanning for luminescence. Imaging was performed on the IVIS Spectrum (Caliper LS) with large binning, open filter for 10 min.

Compound	Transfection efficiency (percentage of transfected cells), B16F10 (B16F10 cells [1]) [%]	Transfection efficiency (percentage of transfected cells), HEK293 (HEK293 cells [2]) [%]	MTT toxicity assay, cell viability (between brackets), HEK293 (HEK293 cells [3]) [%]	Transfection efficiency (percentage of transfected cells), HeLa (HeLa cells [4]) [%]	MTT toxicity assay, cell viability (between brackets), HeLa (HeLa cells [5]) [%]	MTT toxicity assay, cell viability (between brackets), B16F10 (B16F10 cells [6]) [%]	Transfection results (percentage of transfected cells), HeLa (HeLa cells [4])	also measured
CCCCCCCCCCCCCCCC(=O)NCCN(CCNC(=O)CCCCCCCCCCCCCCC)C(=O)CCC(=O)N[C@@H](CCCNC(=N)N)C(=O)N[C@@H](CCCNC(=N)N)C(N)=O.O=C(O)C(F)(F)F.O=C(O)C(F)(F)F [Compound A2-Sp1-P]	74	89	97	85	99	98		Transfection compared with the positive controls (HeLa cells [4]): more effectively than the positive controls
CCCCCCCCCCCCCCCC(=O)NCCN(CCNC(=O)CCCCCCCCCCCCCCC)C(=O)/C=C\C(=O)N[C@@H](CCCNC(=N)N)C(=O)N[C@@H](CCCNC(=N)N)C(N)=O.O=C(O)C(F)(F)F.O=C(O)C(F)(F)F [Compound A2-Sp2-P]	78	90	98	86	99	99		Cells fluorescently labelled after siRNA transfection (HeLa cells [7]): over 96%; Transfection compared with the positive controls (HeLa cells [4]): more effectively than the positive controls; Behaviour of mice during the study (mice; mice monitored on a daily basis, n=3 per experiment): behaved normally; Luminescence after in vivo transfection of pLux (mice; mice, intravenous injection via tail vein, 16 μg plasmid per mouse, imaged 48 hours after transfection): Positive luminescence was detected; Location of highest luminescence signal (mice; mice, intravenous injection via tail vein, 48 hours after transfection): at the point of injection
CCCCCCCCCCCCCCCC(=O)NCCN(CCNC(=O)CCCCCCCCCCCCCCC)C(=O)/C=C\C(=O)N[C@@H](CCCNC(=N)N)C(=O)N[C@@H](CCCNC(=N)N)C(=O)N[C@@H](CCCNC(=N)N)C(N)=O.O=C(O)C(F)(F)F.O=C(O)C(F)(F)F.O=C(O)C(F)(F)F [Compound A3-Sp2-P]	69	80	96	70	92	93		
CCCCCCCCCCCCCCCC(=O)NCCN(CCNC(=O)CCCCCCCCCCCCCCC)C(=O)CCC(=O)N[C@@H](CCCNC(=N)N)C(=O)N[C@@H](CCCNC(=N)N)C(=O)N[C@@H](CCCNC(=N)N)C(N)=O.O=C(O)C(F)(F)F.O=C(O)C(F)(F)F.O=C(O)C(F)(F)F [Compound A3-Sp1-P]	56	84	95	75	93	89		
CCCCCCCCCCCCCCCCCCCC(=O)NCCN(CCNC(=O)CCCCCCCCCCCCCCCCCCC)C(=O)CCC(=O)N[C@@H](CCCNC(=N)N)C(N)=O.O=C(O)C(F)(F)F [Compound A1-Sp1-A]							+ (percentages of transfection between 5-25%)	
CCCCCCCCCCCCCCCCCC(=O)NCCN(CCNC(=O)CCCCCCCCCCCCCCCCC)C(=O)CCC(=O)N[C@@H](CCCNC(=N)N)C(=O)N[C@@H](CCCNC(=N)N)C(N)=O.O=C(O)C(F)(F)F.O=C(O)C(F)(F)F [Compound A2-Sp1-S]							+ (percentages of transfection between 5-25%)	
CCCCCCCCCCCCCCCCCCCCCCCC(=O)NCCCN(CCCNC(=O)CCCCCCCCCCCCCCCCCCCCCCC)C(=O)/C=C\C(=O)N[C@@H](CCCNC(=N)N)C(=O)N[C@@H](CCCNC(=N)N)C(N)=O.O=C(O)C(F)(F)F.O=C(O)C(F)(F)F [Compound A2-Sp4-L]							+ (percentages of transfection between 5-25%)	
CCCCCCCCCCCCCCCCCC(=O)NCCCN(CCCNC(=O)CCCCCCCCCCCCCCCCC)C(=O)/C=C\C(=O)N[C@@H](CCCNC(=N)N)C(N)=O.O=C(O)C(F)(F)F [Compound A1-Sp4-S]							+ (percentages of transfection between 5-25%)	
CCCCCCCC/C=C\CCCCCCCC(=O)NCCCN(CCCNC(=O)CCCCCCC/C=C\CCCCCCCC)C(=O)/C=C\C(=O)N[C@@H](CCCNC(=N)N)C(N)=O.O=C(O)C(F)(F)F [Compound A1-Sp4-O]							+ (percentages of transfection between 5-25%)	
CCCCCCCCCCCCCCCCCC(=O)NCCCN(CCCNC(=O)CCCCCCCCCCCCCCCCC)C(=O)CCC(=O)N[C@@H](CCCNC(=N)N)C(=O)N[C@@H](CCCNC(=N)N)C(=O)N[C@@H](CCCNC(=N)N)C(N)=O.O=C(O)C(F)(F)F.O=C(O)C(F)(F)F.O=C(O)C(F)(F)F [Compound A3-Sp3-S]							+ (percentages of transfection between 5-25%)	
